Experimental data reported in publication PMC11432795, “Mutagenesis of the Peptide Inhibitor of ASIC3 Channel Introduces Binding to Thumb Domain of ASIC1a but Reduces Analgesic Activity” (Marine Drugs, 2024).
“Also recorded” adds a separate entry of the source. Positions of bridges follow the written chain, without caps; N, C: chain ends. Residues, ends and D or L forms follow the SMILES beside them.

Tested on: rat ASIC1a D355A mutant channel
Assay: Two-electrode voltage clamp, D355A mutant ASIC1a in X. laevis oocytes
Assay type: cell-based
Conditions: 10 µM; pH 5.5 stimulus, conditioning pH 7.4, peptide 30 s; n = 5
Protocol: Figure 5 The pivotal role of residue D355 in the ASIC1a channel for the action of the A23K peptide ligand. (A,B) pH dependence of steady-state desensitization (A) and activation (B) in mutant channels (D355A and E357A) compared to the wild-type channel (wt). Each data point represents results from 5 cells. (C–E) Representative current traces illustrating the effects of A23K at a concentration of 10 µM on wt (C), D355A (D), and E357A (E) channels. Currents were evoked by a pH 5.5 stimulus following a conditioning pH of 7.4, with the peptide applied for 30 s preceding the pH stimulus. (F) Bar graph quantifying the effects depicted in (C,D) as a percentage of the corresponding control currents (n = 5). A value of 1.0, represented by a dotted line, corresponds to control measurements at pH 5.5 for each form of ASIC1a. The data are expressed as mean ± SEM; *** p < 0.001, **** p < 0.0001, ns non-significant vs. control, unpaired t-test.
To introduce D355A and E357A substitutions, we designed two pairs of primers. For D355A substitution, the forward primer sequence was 5′–[…]–3′, and the reverse primer (R2) for D355A was 5′–CTAGGAAGTCCAGGGCAG–3′. For E357A substitution, the forward primer sequence was 5′–[…]–3′, and the reverse primer for E357A was the same as for D355A (designated as “R2”). […]

CC[C@H](C)[C@H](N)C(=O)N[C@@H](CO)C(=O)N[C@H](C(=O)N[C@@H](CC(=O)O)C(=O)N1CCC[C@H]1C(=O)N1CCC[C@H]1C(=O)N[C@H]1CSSC[C@@H]2NC(=O)[C@H](CC(N)=O)NC(=O)CNC(=O)[C@H](CO)NC(=O)CNC(=O)[C@H](CC(=O)O)NC(=O)[C@H](CCCNC(=N)N)NC(=O)[C@H](Cc3c[nH]cn3)NC(=O)[C@H](Cc3ccc(O)cc3)NC(=O)[C@H](CSSC[C@@H](C(=O)NCC(=O)N[C@@H](C)C(=O)N[C@H](C(=O)O)C(C)C)NC(=O)CNC(=O)[C@H](Cc3ccc(O)cc3)NC(=O)[C@H](CCCCN)NC(=O)[C@H](CC(=O)O)NC(=O)[C@H](Cc3ccc(O)cc3)NC(=O)[C@H](C(C)C)NC2=O)NC(=O)[C@H](Cc2ccccc2)NC(=O)[C@H](CCCNC(=N)N)NC1=O)[C@@H](C)CC [A23K] (H-ISIDPPCRFCYHRDGSGNCVYDKYGCGAV-OH; disulfide 7-19, 10-26)
inhibitory effect on D355A mutant channel: no significant effect; also recorded: entirely abolished
